Reference: US20230339896A1, “HPK1 INHIBITORS AND USES THEREOF” (QILU REGOR THERAPEUTICS INC., priority 2020, published 2023)
≈ marks a conversion by molar mass, not a printed value.

Key:
MDCK = MDCK permeability assay; assay type: in vitro ADME; settings: pH 7.4
Procedure: This assay is for generating screening data only, and to estimate the intestinal absorption potential of drug candidates. The study will be conducted in accordance with International Bioethical Standards “World MedicalAssociation Declaration of Helsinki.
Cell line: • ▪ MDCK (ATCC), or MDCK MDR1 (NKI).
Prepare donor buffer: • For A-to-B direction: • ✔ HBSS buffer with 0.3% DMSO and 5 µM Lucifer Yellow (LY): add 150 µL DMSO and 125 µL LY (2 mM) into 50 mL HBSS buffer (pH 7.4). • ✔ HBSS buffer with 0.1% DMSO and 5 µM Lucifer Yellow (LY): add 50 µL DMSO and 125 µL LY (2 mM) into 50 mL HBSS buffer (pH 7.4). • ✔ HBSS buffer with 5 µM Lucifer Yellow (LY): add 125 µL LY (2 mM) into 50 mL HBSS buffer (pH 7.4). • For B-to-A direction: • ✔ HBSS buffer with 0.3% DMSO: add 150 µL DMSO into 50 mL HBSS buffer (pH 7.4). • ✔ HBSS buffer with 0.1% DMSO: add 50 µL DMSO into 50 mL HBSS buffer (pH 7.4). • ✔ HBSS buffer without DMSO. • Prepare receiver buffer: • For A-to-B direction: Prepare HBSS buffer with 0.4% DMSO: add 200 µL DMSO into 50 mL HBSS buffer (pH 7.4) • For B-to-A direction: Prepare HBSS buffer with 0.4% DMSO and 5 µM LY: add 200 uL DMSO and 125 µL LY (2 mM) into 50 mL HBSS buffer (pH 7.4) • Controls: • Prepare 10 mM stock concentrations of compound in DMSO and Lucifer Yellow in assay buffer using the following formula: • (Actual Weight/Molecular Weight)/mL solvent =10 mM • Reference compound: Erythromycin, Metoprolol, Atenolol
MDCK assay plates are seeded 3-4 days prior to running the assay. 24-well plates are seeded at a cell density of 0.88 × 10^5/well in a 400 µL apical chamber volume (2.2×10^5 /mL) with a 25 mL volume of growth medium to the 24-well basal chamber. Assay plates are generally provided with a growth medium change 24 hours prior to the assay.
MDCK assay plates are rinsed with HBSS+ buffer prior to running the assay. After rinsing, fresh HBSS+ is added to the assay plate in a 400 µL apical chamber volume and a 0.8 mL HBSS+ basal chamber volume. Measure the electrical resistance across the monolayer using the Millicell ERS system ohm meter. (The cells will be used if TEER is higher than 100 ohm*cm^2).
Preparation of the cell plates: • Remove the buffer from the apical side and basolateral side. Add 600 µL of donor solution (for A-to-B) or 500 µL of receiver solution (for B-to-A) to the apical wells based on plate map. • A fresh basolateral plate is prepared by adding 800 µL of receiver solution (for A-to-B) or 900 µL of donor solution (B-to-A) to the well of a new 24-well plate. • Put the apical plate and basolateral plate into 37° C. incubator.
Preparation of analytical plate: • After 5 min, transfer 100 µL of samples from all donors (for both A-to-B and B-to-A) into appropriate wells of a sample plate for D0. And transfer 100 µL of samples from all apical chambers (the donor of A-to-B and receiver of B-to-A) into appropriate wells of a microplate for Lucifer Yellow D0 (D0 LY) • Lay the apical plate to the basolateral plate to start transport process. • At 90 min, separate the apical and basolateral plates and transfer 100 µL of samples from all donors (for both A-to-B and B-to-A) into appropriate wells of a new sample plate for D90, and transfer 200 µL of samples from all receivers into appropriate wells of a sample plate for R90. Transfer 100 µL of samples from all basolateral chambers (receiver of A-to-B and donor of B-to-A) into appropriate wells of a new microplate for Lucifer Yellow R90 (R90 LY). • Determine LY permeability by reading D0 LY and R90 LY at an excitation wavelength of 485 nm and an emission wavelength of 535 nm using a fluorescent plate reader. • Sample preparation: • For receiver solution: 60 µL of sample + 60 µL ACN with IS (200 ng/mL Osalmid) • For donor solution: 6 µL of sample + 54 µL 0.4% DMSO/HBSS + 60 µL ACN with IS (200 ng/mL Osalmid) […]

Kinetic solubility assay = assay type: physicochemical; settings: pH 7.4, aqueous buffer, kinetic from dmso stock; phosphate buffer pH7.4, 1% DMSO, 1 hour at room temperature
Procedure: This protocol is designed to measure kinetic solubility of test articles in assay buffer. The study will be conducted in accordance with International Bioethical Standards “World Medical Association Declaration of Helsinki.
100 Phosphate Buffer, pH7.4
• 1) Prepare stock solutions for test compounds in DMSO at 10 mM concentration. Dilute the stock solutions into 100 mM phosphate buffer in triplicate in 1.5 ml Eppendorf tubes to a target concentration of 100 µM with a final DMSO concentration of 1%: • 2) 4 µL of 10 mM DMSO stock solution into 396 µL of assay buffer. • 3) Keep the sample tubes shaken (1000 rpm) for 1 hour at room temperature. • 4) Centrifuge sample tubes for 10 min at 12000 rpm (Eppendrof-5424, about 13500 g) to precipitate un-dissolved particles. • 5) Transfer the supernatants to new tubes with different dilutions (undiluted, 10-fold diluted, 100-fold diluted, or other fold diluted). • 6) Add 5 µL of working solution and diluted supernatants to 95 µL ACN (containing IS). Analyze the samples by LC-MS-MS against calibration curve.
A standard calibration curve is prepared in Methanol/H2O (1:1).

Compound	MDCK Permeability (A-B) (×10-6 cm/s) (MDCK; A-B)	MDCK Permeability (B-A) (×10-6 cm/s) (MDCK; B-A)	solubility kinetic at 1 h (Kinetic solubility assay) [µM]
CN1CCc2cc(F)c(Nc3ncc(Cl)c(N4C[C@](C)(CC(=O)O)c5ccccc54)n3)cc2C1 (single isomer, unassigned) [Example 5, (R)-2-[1-[5-chloro-2-[(6-fluoro-2-methyl-3,4-dihydro-1H-isoquinolin-7-yl)amino]pyrimidin-4-yl]-3-methyl-indolin-3-yl]acetic acid or (S)-2-[1-[5-chloro-2-[(6-fluoro-2-methyl-3,4-dihydro-1H-isoquinolin-7-yl)amino]pyrimidin-4-yl]-3-methyl-indolin-3-yl]acetic acid]	11.9 ×10-6 cm/s	52.3 ×10-6 cm/s	–
COc1cc2c(cc1Nc1ncc(Cl)c(N3CC(C(=O)O)c4ccccc43)n1)CN(C)CC2 (stereo not shown) [Compound 7, reference compound]	–	–	7.71 (≈ 3.59 µg/mL)
COc1cc2c(cc1Nc1ncc(Cl)c(N3CC(CC(=O)O)c4ccccc43)n1)CN(C)CC2 (stereo not shown) [Compound 8, reference compound]	–	–	62.1 (≈ 29.8 µg/mL)
COc1cc2c(cc1Nc1ncc(Cl)c(N3CC(C)(CC(=O)O)c4ccc(F)cc43)n1)CN(C)CC2 (stereo not shown) [Compound 10, reference compound]	–	–	56.2 (≈ 28.8 µg/mL)
COc1cc2c(cc1Nc1ncc(Cl)c(N3CC(C)(CC(=O)O)c4ccccc43)n1)CN(C)CC2 (stereo not shown) [Example 1, 2-(1-(5-chloro-2-((6-methoxy-2-methyl-1,2,3,4-tetrahydroisoquinolin-7-yl)amino)pyrimidin-4-yl)-3-methylindolin-3-yl)acetic acid]	–	–	1.5 (≈ 0.741 µg/mL)
CN1CCc2cc(F)c(Nc3ncc(Cl)c(N4CC(C)(CC(=O)O)c5ccccc54)n3)cc2C1 (stereo not shown) [Example 4, 2-(1-(5-chloro-2-((6-fluoro-2-methyl-1,2,3,4-tetrahydroisoquinolin-7-yl)amino)pyrimidin-4-yl)-3-methylindolin-3-yl)acetic acid]	–	–	46.7 (≈ 22.5 µg/mL)
